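Cultured in 96-well plates, cells were exposed to test compound for 48 hours across five concentrations. Here, GI50 denotes the concentration required for 50% inhibition of growth.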 Calls of active or inactive are those of the source. Cut-off read from the data, not from the text of the source: active = GI50 up to about 1.1 µM and inactive = higher. Where only a bound is given, the exact number is not on record here.

Test systems include OVCAR-8; NCI-H460; SW-620; ACHN; T47D; UACC-62; K562; SK-MEL-5; HL-60; OVCAR-5; KM12; A498; HCC 2998; RPMI-8226; MOLT-4; HOP-62; OVCAR-4; MDA-N; BT-549; U-251.
Experiment in all cases: NCI tumour cell line growth inhibition, 48 h

As for `CC(C)NC(=O)CN1CCN(C2=CC(=O)c3c(O)ccc(O)c3C2=O)CC1`, the GI50 in the assay with OVCAR-8 is 9.04 µM (inactive); in the assay with NCI-H460, 13 µM (inactive); with SW-620, 4.25 µM (inactive); in the assay on ACHN, 21.2 µM (inactive); in the assay with T47D it was 8.69 µM (inactive); in the assay with UACC-62, 5.18 µM (inactive). Moreover, the GI50 was 20.6 µM (inactive) in the assay with K562; 2.58 µM (inactive) with SK-MEL-5; 2.59 µM (inactive) in the assay with HL-60; 18.7 µM (inactive) in the assay on OVCAR-5; 16.6 µM (inactive) in the assay on KM12; 24.2 µM (inactive) in the assay with A498. In addition, the GI50 with HCC 2998 was 16.7 µM (inactive); with RPMI-8226, 24.9 µM (inactive); in the assay with MOLT-4 it was 17 µM (inactive); in the assay with HOP-62, 18.2 µM (inactive); in the assay on OVCAR-4, 7.45 µM (inactive); in the assay with MDA-N it was 2.79 µM (inactive). Further, the GI50 with BT-549 was 17.7 µM (inactive); in the assay with U-251, 19.9 µM (inactive).

`c1ccc(/N=C2/SC(c3ccccc3)(c3ccccc3)c3ccccc32)cc1`: the GI50 with OVCAR-8, with NCI-H460, in the assay on SW-620, in the assay with ACHN, with T47D and in the assay with UACC-62 was > 100 µM (inactive) in each case. In addition, the GI50 with K562 is > 100 µM (inactive); with SK-MEL-5 it was 57.8 µM (inactive); in the assay on HL-60 it was > 100 µM (inactive); with OVCAR-5, > 100 µM (inactive); in the assay on KM12, > 100 µM (inactive); with A498, > 100 µM (inactive). Moreover, the GI50 in the assay with HCC 2998, in the assay with RPMI-8226, in the assay on MOLT-4, in the assay on HOP-62, in the assay with OVCAR-4 and in the assay with MDA-N was > 100 µM (inactive) in each case. Besides, the figures for the GI50 in the assay on BT-549 and with U-251 were > 100 µM (inactive) and 10.4 µM (inactive), respectively.

In the case of `COC(=O)C1=NN2c3ccccc3C(=O)OCCC2C1` (stereo not given), the GI50 in the assay on OVCAR-8, in the assay with NCI-H460, with SW-620, in the assay with ACHN, with T47D and in the assay with UACC-62 was > 100 µM (inactive) each time. Further, the GI50 in the assay with K562, in the assay on SK-MEL-5, in the assay with HL-60, in the assay on OVCAR-5, in the assay with KM12 and with A498 was > 100 µM (inactive) throughout. Further, the GI50 with HCC 2998, in the assay on RPMI-8226, in the assay with MOLT-4, with HOP-62, with OVCAR-4 and in the assay on MDA-N was > 100 µM (inactive) in each case. For the same compound, the GI50 in the assay with BT-549 and in the assay on U-251 was > 100 µM (inactive) throughout.

With `O=C(/C=C/c1ccc(C(F)(F)F)cc1)c1c([O-])on[n+]1-c1ccccc1`, the GI50 is 1.92 µM (inactive) in the assay on OVCAR-8; 2.29 µM (inactive) with NCI-H460; 1.37 µM (inactive) in the assay on SW-620; 1.51 µM (inactive) in the assay with ACHN; 1.8 µM (inactive) in the assay on T47D; 1.47 µM (inactive) with UACC-62. Further, the GI50 is 0.395 µM (active) in the assay with K562; 2.8 µM (inactive) with SK-MEL-5; 0.173 µM (active) with HL-60; 3.12 µM (inactive) in the assay with OVCAR-5; 1.83 µM (inactive) in the assay on KM12; 7.05 µM (inactive) in the assay on A498. Further, the GI50 with HCC 2998 was 1.98 µM (inactive); with RPMI-8226, 0.261 µM (active); in the assay on MOLT-4, 0.284 µM (active); in the assay with HOP-62, 3.95 µM (inactive); with OVCAR-4 it was 5.33 µM (inactive); in the assay on MDA-N, 1.84 µM (inactive). Besides, the values for the GI50 with BT-549 and in the assay on U-251 were 1.59 µM (inactive) and 1.83 µM (inactive), respectively.

As to `CCCCCCCCCCC/C=C(/C(=O)CCCO[Si](C)(C)C(C)(C)C)C(=O)OC`, the GI50 in the assay with OVCAR-8, in the assay on NCI-H460, in the assay on SW-620, in the assay with ACHN, in the assay with T47D and in the assay with UACC-62 was > 100 µM (inactive) in each case. For the same compound, the GI50 in the assay on K562, in the assay with SK-MEL-5, in the assay with HL-60, with OVCAR-5, in the assay with KM12 and in the assay with A498 was > 100 µM (inactive) throughout. Further, the GI50 with HCC 2998, in the assay with RPMI-8226, with MOLT-4, in the assay with HOP-62, in the assay on OVCAR-4 and with MDA-N was > 100 µM (inactive) in each case. Moreover, the GI50 in the assay on BT-549 and with U-251 was > 100 µM (inactive) throughout.

(Values after ChEMBL document CHEMBL1201862, “PubChem BioAssay data set” (2004).)
